Experiments:
IL-17A = experiment: TH17 cytokine inhibition measured by ELISA (IL-17A); assay type: cell-based; details: 120 h; human TH17 cells, 5 days differentiation, ELISA of supernatants, 0.1% DMSO
Experimental: (§1) Peripheral blood mononuclear cells (PBMCs) were sourced from freshly prepared leukocyte enriched plasma (buffy coat) from healthy volunteers from which PBMCs were isolated by density gradient centrifugation using Ficoll-Paque™ PLUS (GE Healthcare). Naïve CD4+ T cells were isolated using the Naïve CD4+ T cell Isolation Kit II (Miltenyi Biotec) as per manufacturer's instructions. CD4+ T cells were plated at 5×10^4 cells/well in 96 well plates pre-coated with immobilized human (h)-αCD3 antibody (eBioscience) then differentiated to TH17 cells using h-αCD28, h-αIFN-γ, h-αIL-4, h-IL-6, h-IL-23, h-IL-1β, h-TGF-β1 (eBioscience) and maintained in a cell culture incubator at 37° C. with 5% CO2 in TexMACS Medium (Miltenyi Biotec) supplemented with 1% Penicillin/Streptomycin (Lonza) over 5 days.
(§2) Human CD4+ T cells were differentiated to TH17 cells as described in the presence or absence of various concentrations of compounds in a final concentration of 0.1% DMSO in TexMACS medium. Supernatants were collected and stored at −20° C. until they were to be assayed for IL-17A, IL-17F, IL-17AF, IL-21 and/or IL-22 levels as determined by Ready-Set-Go ELISA kits (eBioscience) as per manufacturer's instructions. Endpoint absorbance was read at 450 nm and 570 nm according to manufacturer's instructions (eBioscience) using a microplate reader (Perkin Elmer). The percentage of cytokine inhibition was calculated with reference to DMSO treated cells and the IC50s were determined by GraphPad Prism software and presented in the table below.

RORα LBD [1] = target: T1, RORα LBD (Homo sapiens, UniProt P35398); experiment: TR-FRET D22 co-activator displacement from RORα LBD; assay type: biochemical
T1 construct: purified GST-tagged (i) RORγ LBD or (ii) RORα LBD; purchased Life Technologies
T1 sequence (P35398 272-510 limits assumed): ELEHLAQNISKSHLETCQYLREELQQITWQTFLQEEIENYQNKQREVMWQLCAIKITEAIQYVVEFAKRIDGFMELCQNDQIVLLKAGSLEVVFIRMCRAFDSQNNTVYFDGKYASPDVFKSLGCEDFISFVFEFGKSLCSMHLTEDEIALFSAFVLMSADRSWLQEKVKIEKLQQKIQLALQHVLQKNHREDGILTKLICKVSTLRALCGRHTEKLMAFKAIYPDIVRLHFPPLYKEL
Description: (§3) The Time-Resolved Fluorescence Resonance Energy Transfer (TR-FRET) assay kit (Life Technologies) was used to measure compound efficacy to disrupt or enhance ligand-mediated interaction of the co-activator and co-repressor peptides with the purified GST-tagged (i) RORγ LBD or (ii) RORα LBD. The RORγ LBD and RORα LBD each have a basal level of interaction with the co-activator D22 or co-repressor NCoR1-D2 in the absence of ligand, thus it is possible to identify compounds that inhibit or induce RORγ and/or RORα co-activator/co-repressor interactions, thus determining RORα, RORγ, or RORα/RORγ compound selectivity. The assay was performed as per manufacturer's instructions and TR-FRET was assessed 2 and 20 hours post-assay initiation. Compounds were identified to (i) have no impact on either co-activator displacement or […] from the assessed LBD (ii) promote co-activator displacement from the assessed LBD (iii) promote co-repressor recruitment to the assessed LBD or (iv) concurrently promote co-activator displacement from the assessed LBD and co-repressor recruitment to the assessed LBD.

RORα LBD [2] = target: T1, RORα LBD; experiment: TR-FRET NCoR1-D2 co-repressor recruitment to RORα LBD; assay type: biochemical
Description: as §3

TH17 cells = experiment: TH17 cellular proliferation (Prestoblue); assay type: cell-based; details: Homo sapiens, 120 h; 3 μM compound, after 5 day TH17 differentiation, relative to DMSO treated TH17 cells; read-out: % change in TH17 cell number
Experimental: as §1
Cellular proliferation was assessed in the presence or absence of 3 μM compound using Prestoblue® Cell Viability Reagent (Life Technologies) as per manufacturer's instructions using absorbance as the output measured by a microplate reader (Perkin Elmer) after 30 minutes of incubation. A standard curve developed by plotting varying cell numbers versus absorbance was used to assess differences in cellular proliferation between compound treated or untreated cells after the 5 day TH17 differentiation period.

IL-17AF = experiment: TH17 cytokine inhibition measured by ELISA (IL-17AF); assay type: cell-based; details: 120 h; human TH17 cells, 5 days differentiation, ELISA of supernatants, 0.1% DMSO
Experimental: as §1, §2

RORγ LBD [3] = target: T2, RORγ LBD (Homo sapiens, UniProt P51449); experiment: TR-FRET D22 co-activator displacement from RORγ LBD; assay type: biochemical; design: purified GST-tagged (i) RORγ LBD or (ii) RORα LBD; purchased Life Technologies
T2 sequence (P51449 269-508 limits assumed): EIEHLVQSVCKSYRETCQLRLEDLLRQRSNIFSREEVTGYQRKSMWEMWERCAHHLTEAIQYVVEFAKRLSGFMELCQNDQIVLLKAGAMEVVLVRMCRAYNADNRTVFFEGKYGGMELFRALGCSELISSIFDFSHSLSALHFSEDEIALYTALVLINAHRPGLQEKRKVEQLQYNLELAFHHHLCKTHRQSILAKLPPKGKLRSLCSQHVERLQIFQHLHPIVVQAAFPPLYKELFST
Description: as §3

IL-21 = experiment: TH17 cytokine inhibition measured by ELISA (IL-21); assay type: cell-based; details: 120 h; human TH17 cells, 5 days differentiation, ELISA of supernatants, 0.1% DMSO
Experimental: as §1, §2

RORγ LBD [4] = target: T2, RORγ LBD; experiment: TR-FRET NCoR1-D2 co-repressor recruitment to RORγ LBD; assay type: biochemical; design: purified GST-tagged (i) RORγ LBD or (ii) RORα LBD; purchased Life Technologies
Description: as §3

IL-22 = experiment: TH17 cytokine inhibition measured by ELISA (IL-22); assay type: cell-based; details: 120 h; human TH17 cells, 5 days differentiation, ELISA of supernatants, 0.1% DMSO
Experimental: as §1, §2

[5] = TH17 cell viability (Prestoblue); assay type: cell-based; details: human; 1 μM compound, after 5 days, percentage of DMSO treated cells
Experimental: as §1
Cells were assayed for viability in the presence or absence of 1 μM compound using Prestoblue® Cell Viability Reagent (Life Technologies) as per manufacturer's instructions after 30 minutes incubation of TH17 cells with reagent. Absorbance was measured at 570 nm and 600 nm using a microplate reader (Perkin Elmer) and data were analyzed as per manufacturer's instructions. Cell viability was determined after 5 days and expressed as a percentage of DMSO treated cells.

IL-17F = experiment: TH17 cytokine inhibition measured by ELISA (IL-17F); assay type: cell-based; details: 120 h; human TH17 cells, 5 days differentiation, ELISA of supernatants, 0.1% DMSO
Experimental: as §1, §2

[6] = TR-FRET assessed 2 hr post-assay initiation, read-out: RORα EC50 D22 co-activator displacement, 2 hr
[7] = TR-FRET assessed 20 hr post-assay initiation, read-out: RORα EC50 D22 co-activator displacement, 20 hr
[8] = TR-FRET assessed 2 hr post-assay initiation, read-out: RORα EC50 NCoR1-D2 co-repressor recruitment, 2 hr
[9] = TR-FRET assessed 20 hr post-assay initiation, read-out: RORα EC50 NCoR1-D2 co-repressor recruitment, 20 hr
[10] = TR-FRET assessed 2 hr post-assay initiation, read-out: RORγ EC50 D22 co-activator displacement, 2 hr
[11] = TR-FRET assessed 20 hr post-assay initiation, read-out: RORγ EC50 D22 co-activator displacement, 20 hr
[12] = TR-FRET assessed 2 hr post-assay initiation, read-out: RORγ EC50 NCoR1-D2 co-repressor recruitment, 2 hr
[13] = TR-FRET assessed 20 hr post-assay initiation, read-out: RORγ EC50 NCoR1-D2 co-repressor recruitment, 20 hr

Row | IC50 (IL-17A) | EC50 (RORα LBD [1]; [6]) | EC50 (RORα LBD [1]; [7]) | EC50 (RORα LBD [2]; [8]) | EC50 (RORα LBD [2]; [9]) | IC50 (IL-17AF) | EC50 (RORγ LBD [3]; [10]) | EC50 (RORγ LBD [3]; [11]) | IC50 (IL-21) | EC50 (RORγ LBD [4]; [12]) | EC50 (RORγ LBD [4]; [13]) | IC50 (IL-22) | IC50 (IL-17F) | melting point | SMILES | inhibition at 3 µM (TH17 cells) | viability at 5 days, 1 µM [5]
1 | < 10 µM | > 30 µM | < 30 µM | < 30 µM | > 30 µM | < 10 µM | < 30 µM | < 30 µM | < 10 µM | < 30 µM | > 30 µM | < 10 µM | < 10 µM | 191 to 195 °C | OC(c1ccc(CN2CCc3cc(-c4cn[nH]c4)ccc32)cc1)(C(F)(F)F)C(F)(F)F [Example 8, 2-(4-((5-(1H-pyrazol-4-yl)indolin-1-yl)methyl)phenyl)-1,1,1,3,3,3-hexafluoropropan-2-ol] | > 50% | > 80%
2 | < 10 µM | > 30 µM | < 30 µM | > 30 µM | < 30 µM | > 10 µM | > 30 µM | > 30 µM | < 10 µM | < 30 µM | > 30 µM | < 10 µM | < 10 µM |  | Cc1nnc(-c2ccc3c(c2)CCN3Cc2ccc(C(O)(C(F)(F)F)C(F)(F)F)cc2)o1 [Example 9, 1,1,1,3,3,3-hexafluoro-2-(4-((5-(5-methyl-1,3,4-oxadiazol-2-yl)indolin-1-yl)methyl)phenyl)propan-2-ol] | > 50% | > 80%
3 | < 10 µM | < 30 µM | < 30 µM | > 30 µM | < 30 µM | < 10 µM | < 30 µM | < 30 µM | < 10 µM | < 30 µM | < 30 µM | < 10 µM | < 10 µM |  | Cc1cc(-c2ccc3c(c2)CCN3Cc2ccc(C(O)(C(F)(F)F)C(F)(F)F)cc2)[nH]n1 [Example 7, 1,1,1,3,3,3-hexafluoro-2-(4-((5-(3-methyl-1H-pyrazol-5-yl)indolin-1-yl)methyl)phenyl)propan-2-ol] | > 50% | > 80%

Reference: patent publication US9447069B2, “ROR modulators and their uses” (INNOV17 LLC, priority 2012, dated 2016)
